Measured values: US12459918B2, “Isoquinolinone derivatives serving as rock protein kinase inhibitors and use thereof” (GUANGZHOU OCUSUN OPHTHALMIC BIOTECHNOLOGY CO., LTD., priority 2019, dated 2025)

Key:
[1] = test system: New Zealand rabbits with normal intraocular pressure; assay: Reduction of intraocular pressure by repeated eye-drop administration for 14 days, experiment operation 1; format: in vivo; settings: for Change of intraocular pressure: negative control minus group
Excerpt: (§1) Experimental example 4. Experiment on reduction of intraocular pressure and ocular toxicity of New Zealand rabbits with normal intraocular pressure by repeated eye-drop administration for 14 days
(§2) The intraocular pressure reduction action and the potential ocular toxicity of compound 63 were explored by 14 days of repeated eye-drop administration in rabbits with normal intraocular pressure.
(§3) Male New Zealand rabbits, aged 97-127 days, weighted 2.6-3.5 kg, purchased from PizhouDongfang Breeding Co. Ltd.
The male New Zealand rabbits were randomly divided into 7 groups, with 6 rabbits per group. Animals were randomly divided according to body weight Animals in 1-7 groups were eye-dropped with solvent/control sample/test sample in both eyes, the volume of the administration was all 50 μL/eye, once per day for 14 consecutive days, and the day of the administration was recorded as Day 1. On Day 1, intraocular pressure of the animals was measured before the administration and in 1, 2, 4, 6, 8 and 10 hours after the administration, respectively; on Days 2-14, intraocular pressure of the animals was measured in 1 hour after daily administration for the group administered with K-115, and intraocular pressure of the animal was measured in 4 hours after daily administration for the other groups.

[2] = test system: New Zealand rabbits with normal intraocular pressure; assay: Repeated eye-drop administration for 14 days, experiment operation 2: Day 1 intraocular pressure; format: in vivo; settings: for Mean intraocular pressure of both eyes: saline in left, Day 1
Excerpt: as §1, §2, §3
42 male New Zealand rabbits were randomly divided into 7 groups, with 6 rabbits per group. Animals were randomly divided according to body weight Animals in 1-7 groups were eye-dropped with normal saline in the left eye and with solvent/control sample/test sample in the right eye respectively by a volume of 50 μL/eye, once per day for 14 consecutive days, and the day of administration was recorded as Day 1. The intraocular pressure of the animals was measured before Day 1 administration and in 1, 2, 4, 6, 8 and 10 hours after Day 1 administration, respectively (Table 8).

[3] = 4.0 mg/mL once per day, Day 2, 4 hours after daily administration
[4] = 4.0 mg/mL once per day, Day 3, 4 hours after daily administration
[5] = 4.0 mg/mL once per day, Day 4, 4 hours after daily administration
[6] = 4.0 mg/mL once per day, Day 5, 4 hours after daily administration
[7] = 4.0 mg/mL once per day, Day 6, 4 hours after daily administration
[8] = 4.0 mg/mL once per day, Day 7, 4 hours after daily administration
[9] = 8.0 mg/mL once per day, Day 2, 4 hours after daily administration
[10] = 8.0 mg/mL once per day, Day 3, 4 hours after daily administration
[11] = 8.0 mg/mL once per day, Day 4, 4 hours after daily administration
[12] = 8.0 mg/mL once per day, Day 5, 4 hours after daily administration
[13] = 8.0 mg/mL once per day, Day 6, 4 hours after daily administration
[14] = 8.0 mg/mL once per day, Day 7, 4 hours after daily administration

## Cc1ccc(C(=O)OCn2cc(C)c3c(S(=O)(=O)N4CC[C@H](N)C4)cccc3c2=O)c(C)c1 [Compound 63]
[1]; 4 mg/mL both eyes, Day 1, 4 hours after administration
  Mean intraocular pressure of both eyes: 6.47 mmHg
[1]; 4 mg/mL both eyes, Day 1, 6 hours after administration
  Mean intraocular pressure of both eyes: 6.22 mmHg
[1]; 4 mg/mL both eyes, Day 1, 8 hours after administration
  Mean intraocular pressure of both eyes: 7.33 mmHg
[1]; 4 mg/mL both eyes, Day 1, 10 hours after administration
  Mean intraocular pressure of both eyes: 8.64 mmHg
[1]; 4 mg/mL both eyes, Day 1, before administration
  Mean intraocular pressure of both eyes: 9.67 mmHg
[1]; [3]
  Mean intraocular pressure of both eyes: 6.53 mmHg
  Change of intraocular pressure: 4.55 mmHg
[1]; [4]
  Mean intraocular pressure of both eyes: 5.58 mmHg
  Change of intraocular pressure: 4.81 mmHg
[1]; [5]
  Mean intraocular pressure of both eyes: 5.53 mmHg
  Change of intraocular pressure: 5.08 mmHg
[1]; [6]
  Mean intraocular pressure of both eyes: 6.61 mmHg
  Change of intraocular pressure: 4.36 mmHg
[1]; [7]
  Mean intraocular pressure of both eyes: 5.47 mmHg
  Change of intraocular pressure: 3.84 mmHg
[1]; [8]
  Mean intraocular pressure of both eyes: 5.56 mmHg
  Change of intraocular pressure: 4.5 mmHg
[1]; 4.0 mg/mL once per day, Day 8, 4 hours after daily administration
  Change of intraocular pressure: 4.53 mmHg
[1]; 4.0 mg/mL once per day, Day 9, 4 hours after daily administration
  Change of intraocular pressure: 3.97 mmHg
[1]; 4.0 mg/mL once per day, Day 10, 4 hours after daily administration
  Change of intraocular pressure: 4.67 mmHg
[1]; 4.0 mg/mL once per day, Day 11, 4 hours after daily administration
  Change of intraocular pressure: 3.86 mmHg
[1]; 4.0 mg/mL once per day, Day 12, 4 hours after daily administration
  Change of intraocular pressure: 3.64 mmHg
[1]; 4.0 mg/mL once per day, Day 13, 4 hours after daily administration
  Change of intraocular pressure: 4.36 mmHg
[1]; 4.0 mg/mL once per day, Day 14, 4 hours after daily administration
  Change of intraocular pressure: 4.64 mmHg
[1]; 4 mg/mL, Day 1, 1 hour after administration
  Change of intraocular pressure: −0.13 mmHg
[1]; 4 mg/mL, Day 1, 2 hours after administration
  Change of intraocular pressure: 3.16 mmHg
[1]; 4 mg/mL, Day 1, 4 hours after administration
  Change of intraocular pressure: 4.84 mmHg
[1]; 4 mg/mL, Day 1, 6 hours after administration
  Change of intraocular pressure: 5.72 mmHg
[1]; 4 mg/mL, Day 1, 8 hours after administration
  Change of intraocular pressure: 5.64 mmHg
[1]; 4 mg/mL, Day 1, 10 hours after administration
  Change of intraocular pressure: 5.78 mmHg
[1]; 4 mg/mL, Day 1, before administration
  Change of intraocular pressure: 0.22 mmHg
[1]; 8.0 mg/mL both eyes, Day 1, 1 hour after administration
  Mean intraocular pressure of both eyes: 7.69 mmHg
[1]; 8.0 mg/mL both eyes, Day 1, 2 hours after administration
  Mean intraocular pressure of both eyes: 6.39 mmHg
[1]; 8.0 mg/mL both eyes, Day 1, 4 hours after administration
  Mean intraocular pressure of both eyes: 7.06 mmHg
[1]; 8.0 mg/mL both eyes, Day 1, 6 hours after administration
  Mean intraocular pressure of both eyes: 7.11 mmHg
[1]; 8.0 mg/mL both eyes, Day 1, 8 hours after administration
  Mean intraocular pressure of both eyes: 7.22 mmHg
[1]; 8.0 mg/mL both eyes, Day 1, 10 hours after administration
  Mean intraocular pressure of both eyes: 7.97 mmHg
[1]; 8.0 mg/mL both eyes, Day 1, before administration
  Mean intraocular pressure of both eyes: 10.17 mmHg
[1]; [9]
  Mean intraocular pressure of both eyes: 6.33 mmHg
  Change of intraocular pressure: 4.75 mmHg
[1]; [10]
  Mean intraocular pressure of both eyes: 5.78 mmHg
  Change of intraocular pressure: 4.61 mmHg
[1]; [11]
  Mean intraocular pressure of both eyes: 5.97 mmHg
  Change of intraocular pressure: 4.64 mmHg
[1]; [12]
  Mean intraocular pressure of both eyes: 6.42 mmHg
  Change of intraocular pressure: 4.55 mmHg
[1]; [13]
  Mean intraocular pressure of both eyes: 5.56 mmHg
  Change of intraocular pressure: 3.75 mmHg
[1]; [14]
  Mean intraocular pressure of both eyes: 5.28 mmHg
  Change of intraocular pressure: 4.78 mmHg
[1]; 8.0 mg/mL once per day, Day 8, 4 hours after daily administration
  Change of intraocular pressure: 5.59 mmHg
[1]; 8.0 mg/mL once per day, Day 9, 4 hours after daily administration
  Change of intraocular pressure: 4.25 mmHg
[1]; 8.0 mg/mL once per day, Day 10, 4 hours after daily administration
  Change of intraocular pressure: 4.19 mmHg
[1]; 8.0 mg/mL once per day, Day 11, 4 hours after daily administration
  Change of intraocular pressure: 4.16 mmHg
[1]; 8.0 mg/mL once per day, Day 12, 4 hours after daily administration
  Change of intraocular pressure: 3.97 mmHg
[1]; 8.0 mg/mL once per day, Day 13, 4 hours after daily administration
  Change of intraocular pressure: 4.72 mmHg
[1]; 8.0 mg/mL once per day, Day 14, 4 hours after daily administration
  Change of intraocular pressure: 4.03 mmHg
[1]; 8.0 mg/mL, Day 1, 1 hour after administration
  Change of intraocular pressure: 2.62 mmHg
[1]; 8.0 mg/mL, Day 1, 2 hours after administration
  Change of intraocular pressure: 4.58 mmHg
[1]; 8.0 mg/mL, Day 1, 4 hours after administration
  Change of intraocular pressure: 4.25 mmHg
[1]; 8.0 mg/mL, Day 1, 6 hours after administration
  Change of intraocular pressure: 4.83 mmHg
[1]; 8.0 mg/mL, Day 1, 8 hours after administration
  Change of intraocular pressure: 5.75 mmHg
[1]; 8.0 mg/mL, Day 1, 10 hours after administration
  Change of intraocular pressure: 6.45 mmHg
[1]; 8.0 mg/mL, Day 1, before administration
  Change of intraocular pressure: −0.28 mmHg
[1]; all test doses (0.5-8.0 mg/mL), compared with K-115
  Efficacy of a single dose (highest hypotensive effect and action duration): superior efficacy
[1]; dose of 0.5 mg/mL
  Hypotensive effect after 14 days of continuous administration: maintain a significant hypotensive effect
[2]; 0.25 mg/mL in right eye, 1 hour after administration
  Mean intraocular pressure of both eyes: 6.22 mmHg
[2]; 0.25 mg/mL in right eye, 2 hours after administration
  Mean intraocular pressure of both eyes: 6.17 mmHg
[2]; 0.25 mg/mL in right eye, 4 hours after administration
  Mean intraocular pressure of both eyes: 6.67 mmHg
[2]; 0.25 mg/mL in right eye, 6 hours after administration
  Mean intraocular pressure of both eyes: 8.06 mmHg
[2]; 0.25 mg/mL in right eye, 8 hours after administration
  Mean intraocular pressure of both eyes: 9.72 mmHg
[2]; 0.25 mg/mL in right eye, 10 hours after administration
  Mean intraocular pressure of both eyes: 10.95 mmHg
[2]; 0.25 mg/mL in right eye, before administration
  Mean intraocular pressure of both eyes: 9.84 mmHg
[2]; 0.5 mg/mL in right eye, 1 hour after administration
  Mean intraocular pressure of both eyes: 5.39 mmHg
[2]; 0.5 mg/mL in right eye, 2 hours after administration
  Mean intraocular pressure of both eyes: 5.50 mmHg
[2]; 0.5 mg/mL in right eye, 4 hours after administration
  Mean intraocular pressure of both eyes: 6.95 mmHg
[2]; 0.5 mg/mL in right eye, 6 hours after administration
  Mean intraocular pressure of both eyes: 8.94 mmHg
[2]; 0.5 mg/mL in right eye, 8 hours after administration
  Mean intraocular pressure of both eyes: 9.89 mmHg
[2]; 0.5 mg/mL in right eye, 10 hours after administration
  Mean intraocular pressure of both eyes: 11.56 mmHg
[2]; 0.5 mg/mL in right eye, before administration
  Mean intraocular pressure of both eyes: 9.22 mmHg
[2]; 1.0 mg/mL in right eye, 1 hour after administration
  Mean intraocular pressure of both eyes: 5.56 mmHg
[2]; 1.0 mg/mL in right eye, 2 hours after administration
  Mean intraocular pressure of both eyes: 5.39 mmHg
[2]; 1.0 mg/mL in right eye, 4 hours after administration
  Mean intraocular pressure of both eyes: 6.67 mmHg
[2]; 1.0 mg/mL in right eye, 6 hours after administration
  Mean intraocular pressure of both eyes: 7.33 mmHg
[2]; 1.0 mg/mL in right eye, 8 hours after administration
  Mean intraocular pressure of both eyes: 10.50 mmHg
[2]; 1.0 mg/mL in right eye, 10 hours after administration
  Mean intraocular pressure of both eyes: 10.89 mmHg
[2]; 1.0 mg/mL in right eye, before administration
  Mean intraocular pressure of both eyes: 9.17 mmHg
[2]; 2.0 mg/mL in right eye, 1 hour after administration
  Mean intraocular pressure of both eyes: 8.11 mmHg
[2]; 2.0 mg/mL in right eye, 2 hours after administration
  Mean intraocular pressure of both eyes: 5.84 mmHg
[2]; 2.0 mg/mL in right eye, 4 hours after administration
  Mean intraocular pressure of both eyes: 6.06 mmHg
[2]; 2.0 mg/mL in right eye, 6 hours after administration
  Mean intraocular pressure of both eyes: 7.11 mmHg
[2]; 2.0 mg/mL in right eye, 8 hours after administration
  Mean intraocular pressure of both eyes: 9.00 mmHg
[2]; 2.0 mg/mL in right eye, 10 hours after administration
  Mean intraocular pressure of both eyes: 10.05 mmHg
[2]; 2.0 mg/mL in right eye, before administration
  Mean intraocular pressure of both eyes: 9.72 mmHg
[2]; 4 mg/mL in right eye, 1 hour after administration
  Mean intraocular pressure of both eyes: 6.61 mmHg
[2]; 4 mg/mL in right eye, 2 hours after administration
  Mean intraocular pressure of both eyes: 5.84 mmHg
[2]; 4 mg/mL in right eye, 4 hours after administration
  Mean intraocular pressure of both eyes: 5.72 mmHg
[2]; 4 mg/mL in right eye, 6 hours after administration
  Mean intraocular pressure of both eyes: 6.61 mmHg
[2]; 4 mg/mL in right eye, 8 hours after administration
  Mean intraocular pressure of both eyes: 8.39 mmHg
[2]; 4 mg/mL in right eye, 10 hours after administration
  Mean intraocular pressure of both eyes: 10.67 mmHg
[2]; 4 mg/mL in right eye, before administration
  Mean intraocular pressure of both eyes: 10.00 mmHg
[2]; all test doses (0.25-4.0 mg/mL), compared with K-115
  Efficacy of a single dose (highest hypotensive effect and action duration): superior efficacy
